# Laboratory results from US10357460B2, “Particulate comprising a calcium-containing compound and a sugar alcohol” (Takeda Nycomed AS, priority 2004, dated 2019).
# Legend:
# [1] = tested on: pre-menopausal women; conditions: 1200 mg of calcium supplements daily, three menstrual cycles; placebo 48%; cited from earlier work
# [2] = Tablet hardness as a function of compression pressure (Schleuniger AT4); type: physicochemical
# Excerpt: Sorbitol was lump breaked in a Cone Mill (Quadro U20) and afterwards premixed with Calcium Carbonate in a high-shear mixer (Diosna P250 at low impeller speed and no chopper) for 60 sec.
# The premix was granulated on a roller compactor (Gerteis 3W-Polygran), and the compacted granules was then mixed with Povidone K30, Aspartame, D3 Vitamin and Flavour in a high-shear mixer (Diosna P250 at low impeller speed and no chopper) for 60 sec. Finally, lubrication with Magnesium Stearate was done a high-shear mixer (Diosna P250 at low impeller speed and no chopper) for 25 sec.
# The roller compaction was based on a setup with knurled rollers and control. The key set up parameters are: Gap Width (GW), Force (F), Roller Speed (RS) and screen size.
# Tablet weight was approximately 1,750 mg. All in-process weight and hardness data are obtained using a Schleuniger AT4.
# [3] = Compactability of sugar alcohols compressed alone; type: physicochemical; conditions: tablets of sugar alcohol alone; FIG. 19
# Method: Tablets comprising sorbitol 110 μm, sorbitol 38 μm, isomalt 27 μm, maltitol, mannitol or xylitol were compressed on an instrumented Fette Exacta 1/F single punch tablet press, only maximum compression force on the upper punch was recorded.
# Before the compression of each tablet the punch tips and the die bore were lubricated with a 5% suspension of magnesium stearate in acetone. The acetone was allowed to evaporate before compression of the tablet.
# The sugar alcohol was weighed, transferred to the die bore and then compressed, see Table 14. Immediately after ejection the tablet was tested for crushing strength.
# [4] = Crushing strength versus tablet compression force, calcium carbonate/sugar alcohol tablets (Example 11); conditions: for tendency of capping: observed during the experiment
# Excerpt: In all the below described experiments 1-24 the amount of calcium salt is 76.22% w/w of the final tablet mass, the amount of sugar alcohol is 23.78% w/w, with the exception of experiments 4 and 20 at which the 23.78% w/w of sugar alcohol is replaced with 14.63% w/w of sugar alcohol and 9.15% w/w of Precirol.
# The calcium salt and the sugar alcohol are mixed in a total amount of 6 kg in a Fielder high shear mixer. The sugar alcohol is sieved through sieve size 300 μm prior to mixing. The mixing of 6 kg is done twice and the total yield of 12 kg is mixed in a planetary mixer. Thereafter, the mixtures are roller compacted (intra granular sugar alcohol) using the following values for GW, F, RS and screen size. (For the experiments 25-26 the sugar alcohol is admixed by hand after roller compaction has been carried out (extra granular sugar alcohol)).
# The compactate is admixed with 0.34% w/w of magnesium stearate.
# Compression is carried out on a Fette 1090 using a 18.9 mm×9.4 mm capsule shaped punch design and a theoretical tablet mass of 1683 mg. […] The crushing strength has been measured by use of a Schleuniger Autotest 4 and n=20.
# [5] = tested on: treated patients; conditions: annual injections of 150.000-300.000 IU; cited from earlier work
Compound,compactability (slope of compression force versus crushing strength) [3],tendency of capping [4],other results
[Ca] [calcium],–,–,women with PMS related symptoms [1]: 30%
"OC[C@@H](O)[C@@H](O[C@H]1O[C@H](CO)[C@@H](O)[C@H](O)[C@H]1O)[C@H](O)[C@@H](O)CO [maltitol, Maltitol]",very poor compactability,tendency of capping,"binding properties (tablet hardness) ([2]; maltitol versus sorbitol 38 μm as binder, capsule shaped 9.4 mm*18.9 mm, FIG. 7): does not impart as good binding properties"
"OC[C@@H](O)[C@@H](O)[C@H](O)[C@H](O)CO [mannitol, Mannitol]",very poor compactability,tendency of capping,–
"OC[C@@H](O)[C@@H](O)[C@H](O)[C@@H](O)CO [sorbitol, Sorbitol]",best compactability,–,"tablet hardness ([2]; decreasing size of sorbitol (110, 38, 11 μm), fixed compression force, 14 mm round tablets, FIG. 4): markedly increased tablet hardness; tablet hardness ([2]; presence of sorbitol compared to tablets consisting solely of calcium carbonate, FIG. 1): increased tablet hardness values"
"OC[C@@H](O)[C@H](O)[C@@H](O)CO [xylitol, Xylitol]",very poor compactability,tendency of capping,–
Glycerol distearat Type I EP [Precirol],–,–,"crushing strength ([4]; addition of Precirol to xylitol 34 μm, FIG. 11): increases the crushing strength"
Isomalt,Sorbitol is followed by isomalt,–,–
vitamin D,–,–,overall fracture rate [5]: significant reduction; rate of hip fracture [5]: not in the rate of hip fracture
